In patent publication US8895585B2, “Nicotinamide derivative or salt thereof” (FUJIFILM Corporation, priority 2010, dated 2014):

Tests used:
[1] = target: T1, glutathione S-transferase (GST)-fused full-length human Syk protein (Homo sapiens, UniProt P43405); experiment: Syk enzyme assay; assay type: biochemical; details: Syk enzyme assay, Test Example 1; read-out: IC50 of Syk-inhibitory activity
T1 construct: (GST)-fused full-length human Syk protein; GST (glutathione S-transferase); purchased Carna Biosciences
Procedure, shortened: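 Baculovirus-expressed enzyme (1.2 ng) was preincubated with compound in HEPES pH 7.0/MgCl2/DTT buffer, 2 min shaking then 13 min at room temperature. Biotin-EDPDYEWPSA-NH2 (0.4 μM final) and ATP (27 μM final) were added for 40 min at room temperature. EDTA stop, streptavidin-XL/PT66-K TR-FRET at 615/665 nm gave IC50.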

[2] = tested on: THP-1 cells; experiment: TNFα generation assay; assay type: cell-based, human; details: Homo sapiens, THP-1, THP-1 cells; Table 22; read-out: IC50 in TNFα generation assay
Experimental: THP-1 cells (2×10^5 cells/ml), which were human monocytoid cells, were cultured in the presence of 10 ng/ml IFN-γ (Roche) for 2 days, so that the cells were induced to differentiate into macrophage-like cells. The differentiation-induced THP-1 cells were recovered, and the cells (1×10^6 cell/ml) were then allowed to react with a predetermined concentration of test compound at room temperature for 30 minutes. On the other hand, 100 μl of human IgG (10 μg/ml, SIGMA-ALDRICH) diluted with PBS was added to a 96-well plate, and it was then incubated at room temperature overnight. Thereafter, the resultant was washed with PBS twice to produce a human IgG-coated plate. Subsequently, a cell solution that contained a compound was inoculated on the human IgG-coated plate (5×10^4 cells/well), and it was then cultured for 7 hours. Thereafter, the cultured solution was recovered, and the amount of TNFα secreted into the culture solution was then measured by the ELISA method (Roche/R & D Systems) or the AlphaLISA method (PerkinElmer).

Compound	IC50 [1] [nM]	IC50 [2] [nM]
Cc1nc2ccc(Nc3nc(N[C@H](C)[C@H](C)N)c(F)cc3C(N)=O)cc2nc1C (racemic) [Example 006-185, 6-(((2R,3S)-3-aminobutan-2-yl)amino)-2-((2,3-dimethylquinoxalin-6-yl)amino)-5-fluoronicotinamide 6-(((2S,3R)-3-aminobutan-2-yl)amino)-2-((2,3-dimethylquinoxalin-6-yl)amino)-5-fluoronicotinamide]	10 to 50	65 to 130
C[C@H](N)[C@@H](C)Nc1nc(Nc2cncc(-n3cccn3)c2)c(C(N)=O)cc1F (racemic) [Example 006-192, 2-((5-(1H-pyrazol-1-yl)pyridin-3-yl)amino)-6-(((2R,3S)-3-aminobutan-2-yl)amino)-5-fluoronicotinamide 2-((5-(1H-pyrazol-1-yl)pyridin-3-yl)amino)-6-(((2S,3R)-3-aminobutan-2-yl)amino)-5-fluoronicotinamide]	10 to 50	65 to 130
Cc1cnc2cc(Nc3nc(N[C@H](C)[C@H](C)N)c(F)cc3C(N)=O)ccc2n1 (racemic) [Example 006-196, 6-(((2R,3S)-3-aminobutan-2-yl)amino)-5-fluoro-2-((2-methylquinoxalin-6-yl)amino)nicotinamide 6-(((2S,3R)-3-aminobutan-2-yl)amino)-5-fluoro-2-((2-methylquinoxalin-6-yl)amino)nicotinamide]	10 to 50	65 to 130
NC(=O)c1cc(F)c(N[C@@H]2CCCC[C@@H]2N)nc1Nc1cncc(N2CCCCC2)c1 (relative stereo) [Example 004-050]	10 to 50	130 to 200
NC(=O)c1cc(F)c(N[C@@H]2CCCC[C@@H]2N)nc1Nc1cncc(-c2ccc[nH]2)c1 (relative stereo) [Example 004-053]	< 10	65 to 130
NC(=O)c1cc(F)c(N[C@@H]2CCCC[C@@H]2N)nc1Nc1cncc(-c2cccs2)c1 (relative stereo) [Example 004-054]	< 10	65 to 130
NC(=O)c1cc(F)c(N[C@@H]2CCCC[C@@H]2N)nc1Nc1cncc(C2CC2)c1 (relative stereo) [Example 004-055]	< 10	65 to 130
NC(=O)c1cc(F)c(N[C@@H]2CCCC[C@@H]2N)nc1Nc1cncc(-c2ccc3c(c2)OCCO3)c1 (relative stereo) [Example 004-056]	< 10	130 to 200
NC(=O)c1cc(F)c(N[C@@H]2CCCC[C@@H]2N)nc1Nc1cncc(-c2ccco2)c1 (relative stereo) [Example 004-058]	< 10	65 to 130

Results, then the compound that gave them:

IC50 [1] [nM]	IC50 [2] [nM]	Compound
< 10	130 to 200	C[C@H](N)[C@@H](C)Nc1nc(Nc2cccc(-n3ccnn3)c2)c(C(N)=O)cc1F (racemic) [Example 006-121, 2-((3-(1H-1,2,3-triazol-1-yl)phenyl)amino)-6-(((2R,3S)-3-aminobutan-2-yl)amino)-5-fluoronicotinamide 2-((3-(1H-1,2,3-triazol-1-yl)phenyl)amino)-6-(((2S,3R)-3-aminobutan-2-yl)amino)-5-fluoronicotinamide]
< 10	< 65	COc1ccc2cc(Nc3nc(N[C@H](C)[C@H](C)N)c(F)cc3C(N)=O)cnc2c1 (racemic) [Example 006-174, 6-(((2R,3S)-3-aminobutan-2-yl)amino)-5-fluoro-2-((7-methoxyquinolin-3-yl)amino)nicotinamide 6-(((2S,3R)-3-aminobutan-2-yl)amino)-5-fluoro-2-((7-methoxyquinolin-3-yl)amino)nicotinamide]
< 10	130 to 200	C[C@H](N)[C@@H](C)Nc1nc(Nc2ccc3cccnc3c2)c(C(N)=O)cc1F (racemic) [Example 006-182, 6-(((2R,3S)-3-aminobutan-2-yl)amino)-5-fluoro-2-((quinolin-7-yl)amino)nicotinamide 6-(((2S,3R)-3-aminobutan-2-yl)amino)-5-fluoro-2-((quinolin-7-yl)amino)nicotinamide]
< 10	65 to 130	CCn1ncc2cc(Nc3nc(N[C@H](C)[C@H](C)N)c(F)cc3C(N)=O)ccc21 (racemic) [Example 006-184, 6-(((2R,3S)-3-aminobutan-2-yl)amino)-2-((1-ethyl-1H-indazol-5-yl)amino)-5-fluoronicotinamide 6-(((2S,3R)-3-aminobutan-2-yl)amino)-2-((1-ethyl-1H-indazol-5-yl)amino)-5-fluoronicotinamide]
< 10	130 to 200	CCCOc1cc(Nc2nc(N[C@H](C)[C@H](C)N)c(F)cc2C(N)=O)ccn1 (racemic) [Example 006-187, 6-(((2R,3S)-3-aminobutan-2-yl)amino)-5-fluoro-2-((2-propoxypyridin-4-yl)amino)nicotinamide 6-(((2S,3R)-3-aminobutan-2-yl)amino)-5-fluoro-2-((2-propoxypyridin-4-yl)amino)nicotinamide]
< 10	65 to 130	C[C@H](N)[C@@H](C)Nc1nc(Nc2ccc3scnc3c2)c(C(N)=O)cc1F (racemic) [Example 006-188, 6-(((2R,3S)-3-aminobutan-2-yl)amino)-2-(benzo[d]thiazol-5-ylamino)-5-fluoronicotinamide 6-(((2S,3R)-3-aminobutan-2-yl)amino)-2-(benzo[d]thiazol-5-ylamino)-5-fluoronicotinamide]
< 10	< 65	C[C@H](N)[C@@H](C)Nc1nc(Nc2cncc(C3CC3)c2)c(C(N)=O)cc1F (racemic) [Example 006-193, 6-(((2R,3S)-3-aminobutan-2-yl)amino)-2-((5-cyclopropylpyridin-3-yl)amino)-5-fluoronicotinamide 6-(((2S,3R)-3-aminobutan-2-yl)amino)-2-((5-cyclopropylpyridin-3-yl)amino)-5-fluoronicotinamide]
< 10	< 65	C[C@H](N)[C@@H](C)Nc1nc(Nc2cncc(-c3ccccc3)c2)c(C(N)=O)cc1F (racemic) [Example 006-195, 6-(((2R,3S)-3-aminobutan-2-yl)amino)-5-fluoro-2-((5-phenylpyridin-3-yl)amino)nicotinamide 6-(((2S,3R)-3-aminobutan-2-yl)amino)-5-fluoro-2-((5-phenylpyridin-3-yl)amino)-nicotinamide]
< 10	130 to 200	CCOc1cc(Nc2nc(N[C@H](C)[C@H](C)N)c(F)cc2C(N)=O)ccn1 (racemic) [Example 006-213, 6-(((2R,3S)-3-aminobutan-2-yl)amino)-2-((2-ethoxypyridin-4-yl)amino)-5-fluoronicotinamide 6-(((2S,3R)-3-aminobutan-2-yl)amino)-2-((2-ethoxypyridin-4-yl)amino)-5-fluoronicotinamide]
< 10	< 65	C[C@H](N)[C@@H](C)Nc1nc(Nc2ccc3ncccc3c2)c(C(N)=O)cc1F (racemic) [Example 39-1, 6-(((2R,3S)-3-aminobutan-2-yl)amino)-5-fluoro-2-((quinolin-6-yl)amino)nicotinamide 6-(((2S,3R)-3-aminobutan-2-yl)amino)-5-fluoro-2-((quinolin-6-yl)amino)nicotinamide]
< 10	130 to 200	NC(=O)c1cc(F)c(N[C@@H]2CCCC[C@@H]2N)nc1Nc1cncc(N2CCCC2)c1 (relative stereo) [Example 004-049]
< 10	130 to 200	NC(=O)c1cc(F)c(N[C@@H]2CCCC[C@@H]2N)nc1Nc1cncc(N2CCOCC2)c1 (relative stereo) [Example 004-051]
